Assay results published in PMC10498496, “Design and Synthesis of Poly(2,2′-Bipyridyl) Ligands for Induction of Cell Death in Cancer Cells: Control of Anticancer Activity by Complexation/Decomplexation with Biorelevant Metal Cations” (Inorganic Chemistry, 2023).
Read-outs that look alike come from different tables or passages of the source.

Columns and labels:
Type in all cases: cell-based, human
Jurkat cells [1] = assay: MTT assay, cytotoxicity against Jurkat cells; conditions: MTT, 37 °C, read-out: EC50 against Jurkat (converted)
Method: (§1) Second, we conducted the quantitative evaluation of the cytotoxicity of 1, 2, and 3 against various cancer cell lines by an MTT (3-(4,5-dimethylthiazol-2-yl)-2,5-diphenyltetrazolium bromide) assay. Jurkat, MOLT-4 (these two cell lines are human T-lymphocyte leukemia cells), and U937 (human lymphoma) cells (1.5 × 10^4 cells/well) were incubated in RPMI 1640 medium containing 10% FBS (fetal bovine serum) containing 1, 2, and 3 (0–25 μM) at 37 °C for 24 h, and then treated with the MTT reagent. A549 (human alveolar adenocarcinoma) and IMR-90 (normal human fetal lung fibroblast as model of normal cells) cells (1.5 × 10^4 cells/well) were incubated in DMEM (low glucose) with 10% FBS containing 1, 2, and 3 (0–25 μM), HeLa S3 (human epithelial carcinoma cells) cells (1.5 × 10^4 cells/well) were incubated in MEM with 10% FBS containing these ligands (0–25 μM) for 24 h at 37 °C and then treated with the MTT reagent.
(§2) • (a) Cytotoxic study. Jurkat cells, MOLT-4 cells, and U937 cells (1.5 × 10^5 cells/mL per one well) were incubated in 10% FBS RPMI 1640 medium containing 1 (0–25 μM), 2 (0–25 μM) , 3, cisplatin (0–100 μM), and actinomycin D (0–10 μM) under 5% CO2 at 37 °C for 24 h on 96 well plates (Watson), 0.5% MTT (3-(4,5-dimethyl-2-thiazolyl)-2,5-diphenyl-2H-tetrazolium bromide) reagent in PBS (10 μL) was then added to the cells. After incubation at 37 °C for 4 h, a formazan lysis solution (10% SDS in 0.01 N HCl) (100 μL) was added and the resulting solution was incubated overnight under the same conditions, followed by the measurement of absorbance at 570 nm with a microplate reader (BIO-RAD).

MOLT-4 cells = assay: MTT assay, cytotoxicity against MOLT-4 cells; conditions: MTT, 37 °C, read-out: EC50 against MOLT-4
Method: as §1, §2

HeLa S3 cells = assay: MTT assay, cytotoxicity against HeLa S3 cells; conditions: MTT, 37 °C, read-out: EC50 against HeLa S3 (converted)
Method: Second, we conducted the quantitative evaluation of the cytotoxicity of 1, 2, and 3 against various cancer cell lines by an MTT (3-(4,5-dimethylthiazol-2-yl)-2,5-diphenyltetrazolium bromide) assay. Jurkat, MOLT-4 (these two cell lines are human T-lymphocyte leukemia cells), and U937 (human lymphoma) cells (1.5 × 10^4 cells/well) were incubated in RPMI 1640 medium containing 10% FBS (fetal bovine serum) containing 1, 2, and 3 (0–25 μM) at 37 °C for 24 h, and then treated with the MTT reagent. […]
HeLa S3 cells and A549 cells in MEM and DMEM medium with 10% FBS (1.5 × 10^5 cells/mL per one well) were seeded in to 96 well plates and incubated for 24 h, MTT assay of poly(bpy) ligands (0–25 μM), cisplatin (0–100 μM), and actinomycin D (0–10 μM) was performed according to the same procedure described above.

IMR-90 cells = assay: MTT assay, cytotoxicity against IMR-90 cells (model of normal cells); conditions: MTT, 37 °C, treated for 24 h, read-out: EC50 against IMR-90
Method: as §1
IMR-90 cells in DMEM medium with 10% FBS (1.5 × 10^5 cells/mL) were seeded in to 96 well plates and incubated for 24 h at 37 °C, MTT assays with poly(bpy) ligands and their metal complexes (0–100 μM), cisplatin (0–100 μM), and actinomycin D (0–10 μM) were performed following the same procedure described above. These experiments were carried out at least three times. • (b) MTT assay in the presence of a caspase inhibitor. Jurkat cells were pre-treated with Z-VAD-fmk (15 μM) for 3 h, a general caspases inhibitor, followed by the treatment with 1 (1 μM), BABTA-AM (12.5 μM) and cisplatin (50 μM), respectively, for 24 h, and then MTT assay was carried out as described above. • (c) For evaluation of the effect of metal ions on the cytotoxicity of 1, 2, BAPTA, and BAPTA-AM, these ligands were incubated with metal ions such as Cu(NO3)2, Zn(NO3)2, FeSO4, Co(NO3)2, and NiSO4 for 1 h, respectively, and added to Jurkat cells. The whole mixtures were incubated for 12, 24, and 48 h at [ligand] = 0.78–25 μM and at [M^2+] = 1.71–37.5 μM ([ligand]/[M^2+] = 1:1.5). The MTT assays were conducted as described above.

Jurkat cells [2] = assay: MTT assay in the presence of the caspase inhibitor Z-VAD-fmk; conditions: Z-VAD-fmk 15 μM 3 h
Source text: We, therefore, selected Jurkat cells to study the cell death mechanism in detail, in this work. Programmed cell death (PCD) is generally classified into several types such as apoptosis, necroptosis, paraptosis, autophagic cell death, and so on.[30]−[33] We hypothesized that 1 and 2 function as inducers of apoptosis, which is a type of PCD in cancer cells, based on the morphological change of Jurkat cells observed in Figure 1 and mechanism of chelation therapy proposed in the previous studies.[11]−[19] It is known that the caspases family are cysteine proteases that play important roles in apoptosis and necroptosis.[38] Therefore, the effect of Z-VAD-fmk, which is known as one of general caspase inhibitors, on the cell death induced by 1 and cisplatin was examined.
Figure 3 Effect of Z-VAD-fmk on the cell death in Jurkat cells induced by 1. Jurkat cells were incubated in RPMI in the presence of Z-VAD-fmk (15 μM) for 3 h and then treated with (a) 1 (1 μM) and (b) cisplatin (50 μM) for 24 h. Asterisks indicate significant difference with *(P ≤ 0.05).
To investigate the mechanism responsible for the BAPTA-AM-induced cell death in Jurkat cells, Jurkat cells were incubated with Z-VAD-fmk (15 μM) for 3 h, and then cells were treated with BAPTA-AM (12.5 μM) for 24 h followed by an MTT assay.
IMR-90 cells in DMEM medium with 10% FBS (1.5 × 10^5 cells/mL) were seeded in to 96 well plates and incubated for 24 h at 37 °C, MTT assays with poly(bpy) ligands and their metal complexes (0–100 μM), cisplatin (0–100 μM), and actinomycin D (0–10 μM) were performed following the same procedure described above. These experiments were carried out at least three times. • (b) MTT assay in the presence of a caspase inhibitor. […]

| Structure (SMILES) | EC50 (Jurkat cells [1]; Homo sapiens, Jurkat, treated for 24 h) [µM] | EC50 (Jurkat cells [1]; Homo sapiens, Jurkat, treated for 48 h) [µM] | EC50 (MOLT-4 cells; Homo sapiens, MOLT-4, treated for 24 h) [µM] | EC50 (MOLT-4 cells; Homo sapiens, MOLT-4, treated for 48 h) [µM] | EC50 (HeLa S3 cells; Homo sapiens, HeLa S3, treated for 24 h) [µM] | EC50 (HeLa S3 cells; Homo sapiens, HeLa S3, treated for 48 h) [µM] | EC50 (IMR-90 cells; Homo sapiens, IMR-90) [µM] | cell viability of Jurkat cells after preincubation with Z-VAD-fmk (Jurkat cells [2]; then compound 1 μM for 24 h) | EC50 (Jurkat cells [1]; treated for 24 h) [µM] | EC50 (MOLT-4 cells; treated for 24 h) [µM] | EC50 (HeLa S3 cells; treated for 24 h) [µM] | EC50 (IMR-90 cells) [µM] | cell viability of Jurkat cells after preincubation with Z-VAD-fmk (Jurkat cells [2]; then compound 50 μM for 24 h) |
| --- | --- | --- | --- | --- | --- | --- | --- | --- | --- | --- | --- | --- | --- |
| c1ccc(-c2ccc(OCc3cc(COc4ccc(-c5ccccn5)nc4)cc(COc4ccc(-c5ccccn5)nc4)c3)cn2)nc1 [compound 1, 1,3,5-Tris(([2,2′-Bipyridin]-5-yloxy)methyl)benzene] | 0.14 ± 0.13 | 0.064 | 0.21 ± 0.36 | < 0.1 | 16 ± 0.33 | 2.8 | > 100 | considerably restored |  |  |  |  |  |
| N.N.[Cl][Pt][Cl] [cisplatin, reference compound] |  |  |  |  |  |  |  |  | 33 ± 0.2 | 14 ± 0.3 | 29 ± 1.2 | > 100 | considerably restored |
